Measurements: patent US10988812B2, “Fusion genes associated with progressive prostate cancer” (UNIVERSITY OF PITTSBURGH - OF THE COMMONWEALTH SYSTEM OF …, priority 2013, dated 2021)
Like-named read-outs stand apart in the source and are kept apart here.

Experiments:
Assay type in all cases: cell-based, human
[1] = tested on: MAN2A1-FER transformed PC3 cells; assay: Cell death of PC3 cells transformed with pCDNA4-MAN2A1-FER-FLAG/pCDNA6
Procedure: FIG. 23. […] Prostate cancer cell line PC3 was transformed with pCDNA4-MAN2A1-FER-FLAG/pCDNA6. Expression of MAN2A1-FER was induced with 5 μg/mL tetracycline. Cells not treated with tetracycline nor any drug were used as background controls.
The second approach is to target EGFR activation by EGFR inhibitors. These include erlotinib, cetuximab, […], canertinib and […]. Many of these drugs were FDA approved and is widely used in a variety of human solid tumors. To interrogate the effectiveness of EGFR activation interruption in treating prostate cancer, we treated MAN2A1-FER transformed PC3 cells with canertinib.

[2] = tested on: PC3 cells containing TMEM135-CCDC67 breakpoint; assay: Ganciclovir killing of PC3 cells after genome editing that integrates HSV-1 TK at the TMEM135-CCDC67 breakpoint
Excerpt: (§1) FIG. 28A-B. Genetic therapy targeting at TMEM135-CCDC67 genome breakpoint.
(§2) The technique described above was applied to cells having the TMEM135-CCDC67 breakpoint. Since none of the fusion genes we identified so far was present in prostate cancer cell lines, we created a TMEM135-CCDC67 genome breakpoint that is identical to the prostate cancer sample we analyzed. The expression of the TMEM135-CCDC67 breakpoint was driven by a CMV promoter. Subsequently, we constructed a donor DNA that encompassed HSV-1 TK and the splicing sites of TMEM135 exon 14. When we co-transfected this donor DNA with a vector that expresses gRNA targeting at the TMEM135-CCDC67 breakpoint into PC3 cells containing this genome breakpoint, integration of TK into the genome was identified (FIG. 28A). […] This is remarkable in considering only 5-10% transfection efficiency using conventional liposome method. […] In light of this promising result, both TMEM135-CCDC67-TK cassette and NicKase-gRNATMEM135-CCDC67-BrkPt DNA are now in the process of packaging into Adenovirus. We will infect the recombinant virus into these cells in the future experiments. This will dramatically improve the delivery efficiency in the subsequent animal study and probably human.

PC3 cells = assay: as above; settings: PC3 cells without TMEM135-CCDC67 breakpoint, same treatment
Excerpt: as §1, §2

Cn1cnc2c(F)c(Nc3ccc(Br)cc3Cl)c(C(=O)NOCCO)cc21 [AZD6244]
differential killing effect (MAN2A1-FER expressing versus not) ([1]; MEK interception, data not shown): largely moderated and vanished

C=CC(=O)Nc1cc2c(Nc3ccc(F)c(Cl)c3)ncnc2cc1OCCCN1CCOCC1 [Canertinib]
cell death / killing of cells not expressing MAN2A1-FER ([1]; PC3 cells not expressing MAN2A1-FER (Tet-)): minimal | specific killing of MAN2A1-FER expressing cells (FIG. 23) ([1]; expression induced with 5 μg/mL tetracycline): specifically kills

C[C@@H](Oc1cc(-c2cnn(C3CCNCC3)c2)cnc1N)c1c(Cl)ccc(F)c1Cl [Crisotinib]
cell death [1]: 31% | cell death / killing of cells not expressing MAN2A1-FER [1]: hardly killed | lowering of cancer killing EC50 by expression of MAN2A1-FER [1]: ~100 fold | specific killing of MAN2A1-FER expressing cells (FIG. 23) [1]: specifically kills

Nc1nc(O)c2ncn(COC(CO)CO)c2n1 [ganciclovir]
specific killing of TMEM135-CCDC67 breakpoint containing PC3 cells (FIG. 28B) [2]: specific killing | cell death (PC3 cells): minimal cell death
